Test results: article PMC5706069 (2017)

Experiments:
human MOR [1] = biological target: T1, human MOR (Homo sapiens, UniProt P35372); test: Competition binding assay, [3H]DAMGO, CHO-hMOR cell membranes; conditions: for Ki: read-out: opioid receptor binding, Ki, affinity MOR, CHO-hMOR membranes, [3H]DAMGO, mean ± SEM, at least three experiments
[2] = test system: acute thermal nociception; test: Hot-plate assay in mice after sc administration; assay type: in vivo; conditions: Mus musculus, 0.5 h, read-out: antinociceptive activity hot-plate assay ED50 (95% CI)
human KOR = human KOR (Homo sapiens, UniProt P41145); test: Competition binding assay, [3H]HS665, CHO-hKOR cell membranes; conditions: for selectivity KOR/MOR: ratio of Ki values; for Ki: read-out: opioid receptor binding, Ki, affinity KOR, CHO-hKOR membranes, [3H]HS665, mean ± SEM, at least three experiments
human DOR = human DOR (Homo sapiens, UniProt P41143); test: Competition binding assay, [3H]diprenorphine, CHO-hDOR cell membranes; conditions: for Ki: read-out: opioid receptor binding, Ki, affinity DOR, CHO-hDOR membranes, [3H]diprenorphine, mean ± SEM, at least three experiments; for selectivity DOR/MOR: ratio of Ki values
human MOR [3] = biological target: T1, human MOR; test: [35S]GTPγS binding assay using CHO-hMOR cell membranes; assay type: biochemical; conditions: for Emax: read-out: functional activity [35S]GTPγS MOR % stim; for EC50: read-out: functional activity [35S]GTPγS MOR EC50, mean ± SEM
[4] = test system: gastrointestinal motility; conditions: ref 6b; cited from earlier work
antinociception = conditions: cited from earlier work
MOR = conditions: 14-methoxy group introduced into 1; ref 6a, 6b; cited from earlier work

Compound	increase in MOR affinity, 3a vs 3 (human MOR [1]; human MOR, Ki ratio)	Ki (human MOR [1]) [nM]	ED50 [2] [mg/kg]	higher MOR/KOR selectivity ratio than 3 (human KOR; 3a vs 3) [fold]	selectivity KOR/MOR (human KOR)	Ki (human KOR) [nM]	higher MOR/DOR selectivity ratio than 3 (human DOR; 3a vs 3)	Ki (human DOR) [nM]	increase in the EC50 of 3a compared to 3 (human MOR [3]; [35S]GTPγS, human MOR) [fold]	Emax (human MOR [3]) [%]	EC50 (human MOR [3]; CHO-hMOR membranes) [nM]	selectivity DOR/MOR (human DOR)	inhibition of gastrointestinal motility [4]	less constipating than 2 [4] [fold]	less constipating than morphine [4] [fold]	increased antinociceptive potency compared to 2 (antinociception; ref 6b) [fold]	% stim of the reference full agonist DAMGO in [35S]GTPγS binding (human MOR [3]; CHO-hMOR membranes, DAMGO's own stimulation, the reference for efficacies) [%]	decrease in affinity to the DOR, 1a vs 1 (human DOR; human DOR, Ki ratio) [fold]	increase in MOR affinity vs oxymorphone (1) (MOR) [fold]	increase in antinociceptive potency vs oxymorphone (1) (antinociception; ref 6a, 6b) [fold]
CN1CC[C@]23c4c5ccc(O)c4O[C@H]2CCC[C@@]3(OCc2ccccc2)[C@H]1C5 [Compound 3a, 14β-Benzyloxy-4,5α-epoxy-3-hydroxy-17-methylmorphinan]	up to 9 fold	0.048 ± 0.011	0.00241	~6	18	0.85 ± 0.05	about 9 fold	0.89 ± 0.29	~2.5	103 ± 8	0.13 ± 0.03									
CO[C@@]12CCC[C@@H]3Oc4c(O)ccc5c4[C@@]31CCN(C)[C@@H]2C5 [Compound 2a, 4,5α-Epoxy-3-hydroxy-14β-methoxy-17-methylmorphinan]		0.24 ± 0.08	0.0173		17	3.99 ± 0.63		8.64 ± 2.25		105 ± 6	1.37 ± 0.26	36								
CO[C@@]12CCC[C@]3(C)Oc4c(O)ccc5c4[C@@]31CCN(C)[C@@H]2C5 [Compound 4a, 5β,17-Dimethyl-4,5α-epoxy-3-hydroxy-14β-methoxymorphinan]		0.34 ± 0.08	0.0251			7.92 ± 4.47		12.9 ± 1.6			2.95 ± 0.54									
CN1CC[C@]23c4c5ccc(O)c4O[C@H]2C(=O)CC[C@@]3(O)[C@H]1C5 [Compound 1, oxymorphone, reference compound]			0.382																	
CN1CC[C@]23c4c5ccc(O)c4O[C@H]2C(=O)CC[C@@]3(OCc2ccccc2)[C@H]1C5 [Compound 3, 14-O-benzyloxymorphone]		0.45 ± 0.1	0.00238		2.8	1.27 ± 0.24		1.05 ± 0.42		101 ± 5	0.32 ± 0.16	2.3	negligible	7	2.5	5				
C[C@@H](NC(=O)[C@@H](N)Cc1ccc(O)cc1)C(=O)NCC(=O)N(C)[C@@H](Cc1ccccc1)C(=O)NCCO [DAMGO, [D-Ala^2,Me-Phe^4,Gly-ol^5]enkephalin, reference compound]																	221 ± 13			
CN1CC[C@]23c4c5ccc(O)c4O[C@H]2CCC[C@@]3(O)[C@H]1C5 [Compound 1a, 3,14-Dihydroxy-4,5α-epoxy-17-methylmorphinan]		1.65 ± 0.5	0.383		13	21.6 ± 3.9		201 ± 80		104 ± 7	8.99 ± 2.19	122						~3		
CO[C@@]12CCC(=O)[C@@H]3Oc4c(O)ccc5c4[C@@]31CCN(C)[C@@H]2C5 [Compound 2, 14-O-methyloxymorphone]		0.32 ± 0.08	0.0142		32	10.1 ± 3.1		8.8 ± 0.35		96.4 ± 5	1.45 ± 0.32	28							~9	40
CO[C@@]12CCC(=O)[C@]3(C)Oc4c(O)ccc5c4[C@@]31CCN(C)[C@@H]2C5 [Compound 4, 14-methoxymetopon]			0.0271		60	15.1 ± 0.9		19.8 ± 1.3		99.2 ± 2.8	3.28 ± 0.81	79								
